# Measured values from ChEMBL document CHEMBL1123019, “N-phenylpiperazine derivatives with hypocholesterolemic activity” (J Med Chem, 1985).
# Experiments:
# [1] = Dose required for 50% lethality after intraperitoneal administration in mice; type: ADME, organism-based; conditions: mouse, in vivo, ip
# Rattus norvegicus [2] = assay: Dose required for 50% reduction of plasma cholesterol in rat when administered orally.(100 mg/kg is maximal dose administered); type: functional; conditions: po
# Mus musculus [3] = assay: Dose required for 50% reduction of spontaneous locomotory activity in mice when administered orally; type: functional; conditions: po
# Mus musculus [4] = assay: Dose required for 50% reduction of spontaneous locomotory activity in mice when administered orally (100 mg/kg is maximal dose administered); type: functional; conditions: po
# Rattus norvegicus [5] = assay: Dose required for 50% reduction of plasma cholesterol in rat when administered orally.; type: functional; conditions: po
# Rattus norvegicus [6] = assay: Dose required for 50% reduction of plasma cholesterol in rat when administered orally. (100 mg/kg is maximal dose administered); type: functional; conditions: po
# Rattus norvegicus [7] = assay: Dose required for 50% reduction of plasma cholesterol in rat when administered orally (200 mg/kg maximal administered dose); type: functional; conditions: po
# Rattus norvegicus [8] = assay: Percent reduction of total cholesterol level in plasma was evaluated at dose 100 mg/kg in rat; type: functional
# Rattus norvegicus [9] = assay: Percent reduction of total cholesterol level in plasma was evaluated at dose 3 mg/kg in rat; type: functional
# Rattus norvegicus [10] = assay: Percent reduction of phospholipid level in plasma was evaluated 10 mg/kg in rat; type: functional
# Rattus norvegicus [11] = assay: Percent reduction of triglyceride level in plasma was evaluated 30 mg/kg in rat; type: functional
# Rattus norvegicus [12] = assay: Percent reduction of phospholipid level in plasma was evaluated 30 mg/kg in rat; type: functional
# Rattus norvegicus [13] = assay: Percent increase in liver weight in plasma was evaluated 30 mg/kg in rat; type: functional
# Rattus norvegicus [14] = assay: Percent reduction of phospholipid level in plasma was evaluated 100 mg/kg in rat; type: functional
# Rattus norvegicus [15] = assay: Percent reduction of triglyceride level in plasma was evaluated 10 mg/kg in rat; type: functional
# Rattus norvegicus [16] = assay: Percent increase in liver weight in plasma was evaluated 100 mg/kg in rat; type: functional
# Rattus norvegicus [17] = assay: Percent reduction of total cholesterol level in plasma was evaluated at dose 10 mg/kg in rat; type: functional
# Rattus norvegicus [18] = assay: Percent reduction of total cholesterol level in plasma was evaluated at dose 30 mg/kg in rat; type: functional
# Rattus norvegicus [19] = assay: Percent reduction of triglyceride level in plasma was evaluated 100 mg/kg in rat; type: functional
# Mus musculus [20] = assay: Dose required for 50% reduction of spontaneous locomotory activity in mice when administered orally (120 mg/kg is maximal dose administered); type: functional; conditions: po
# Rattus norvegicus [21] = assay: Percent increase in liver weight in plasma was evaluated 10 mg/kg in rat; type: functional
# Rattus norvegicus [22] = assay: Percent increase in liver weight in plasma was evaluated 300 mg/kg in rat; type: functional
# Rattus norvegicus [23] = assay: Percent reduction of triglyceride level in plasma was evaluated 300 mg/kg in rat; type: functional
# Rattus norvegicus [24] = assay: Percent reduction of total cholesterol level in plasma was evaluated 100 mg/kg in rat; type: functional
# Rattus norvegicus [25] = assay: Percent reduction of total cholesterol level in plasma was evaluated 300 mg/kg in rat; type: functional
# Rattus norvegicus [26] = assay: Percent reduction of phospholipid level in plasma was evaluated 300 mg/kg in rat; type: functional
# Rattus norvegicus [27] = assay: Dose required for 50% reduction of plasma cholesterol in rat when administered orally (45 mg/kg maximal administered dose); type: functional; conditions: po
# Rattus norvegicus [28] = assay: Dose required for 50% reduction of plasma cholesterol in rat when administered orally; type: functional; conditions: po
# Rattus norvegicus [29] = assay: Percent reduction of total cholesterol level in plasma was evaluated at dose 12.5 mg/kg in rat; type: functional
# Rattus norvegicus [30] = assay: Percent reduction of triglyceride level in plasma was evaluated 300 mg/kg; in rat; type: functional
# Rattus norvegicus [31] = assay: Percent reduction of phospholipid level in plasma was evaluated 25 mg/kg in rat; type: functional
# Rattus norvegicus [32] = assay: Percent reduction of total cholesterol level in plasma was evaluated at dose 25 mg/kg in rat; type: functional
# Rattus norvegicus [33] = assay: Percent increase in liver weight in plasma was evaluated 25 mg/kg in rat; type: functional
# Rattus norvegicus [34] = assay: Percent reduction of total cholesterol level in plasma was evaluated at dose 300 mg/kg in rat; type: functional
# Rattus norvegicus [35] = assay: Percent reduction of total cholesterol level in plasma was evaluated at dose 50 mg/kg in rat; type: functional
# Rattus norvegicus [36] = assay: Percent increase in liver weight in plasma was evaluated 12.5 mg/kg in rat; type: functional
# Rattus norvegicus [37] = assay: Percent reduction of triglyceride level in plasma was evaluated 12.5 mg/kg in rat; type: functional
# Rattus norvegicus [38] = assay: Percent increase in liver weight in plasma was evaluated 50 mg/kg in rat; type: functional
# Rattus norvegicus [39] = assay: Percent reduction of triglyceride level in plasma was evaluated 50 mg/kg in rat; type: functional
# Rattus norvegicus [40] = assay: Percent reduction of triglyceride level in plasma was evaluated 25 mg/kg in rat; type: functional
# Rattus norvegicus [41] = assay: Percent reduction of phospholipid level in plasma was evaluated 12.5 mg/kg in rat; type: functional
# Mus musculus [42] = assay: Dose required for 50% reduction of spontaneous locomotory activity in mice when administered orally (200 mg/kg maximal administered dose); type: functional; conditions: po
# Rattus norvegicus [43] = assay: Dose required for 50% reduction of plasma cholesterol in rat when administered orally (100 mg/kg maximal administered dose); type: functional; conditions: po
# Mus musculus [44] = assay: Dose required for 50% reduction of spontaneous locomotory activity in mice when administered orally (200 mg/kg is maximal dose administered); type: functional; conditions: po
structure (smiles),measurement,setting,value
CSc1ccc(-c2oc(=O)oc2CCN2CCN(c3ccccc3)CC2)cc1.Cl,LD50,[1],> 1000 mg/kg
same,ED50,Rattus norvegicus [2],15 mg/kg
same,ED50,Mus musculus [3],200 mg/kg
Cl.O=c1oc(CCN2CCN(c3cccc(C(F)(F)F)c3)CC2)c(-c2ccc(F)cc2)o1,LD50,[1],1000 mg/kg
same,ED50,Mus musculus [3],200 mg/kg
Cl.O=c1oc(CCN2CCN(c3cc(Cl)cc(Cl)c3)CC2)c(-c2ccc(F)cc2)o1,LD50,[1],> 1000 mg/kg
same,ED50,Rattus norvegicus [2],5 mg/kg
same,ED50,Mus musculus [4],16 mg/kg
Cl.O=c1oc(CCN2CCN(c3ccccc3)CC2)c(-c2ccccc2)o1,LD50,[1],500 mg/kg
same,ED50,Mus musculus [3],50 mg/kg
same,ED50,Rattus norvegicus [5],50 mg/kg
COc1ccccc1N1CCN(CCc2oc(=O)oc2-c2ccc(F)cc2)CC1.Cl,LD50,[1],350 mg/kg
same,ED50,Mus musculus [3],47 mg/kg
same,ED50,Rattus norvegicus [6],25 mg/kg
CC(C)(C)NC(=O)OC(CCN1CCN(c2ccccc2)CC1)C(=O)c1ccc(F)cc1 (stereo unspecified),ED50,Rattus norvegicus [7],18 mg/kg
same,LD50,[1],> 1000 mg/kg
same,ED50,Mus musculus [3],200 mg/kg
CC(=O)OC(CCN1CCN(c2ccccc2)CC1)C(=O)c1ccc(F)cc1.O=C(O)/C=C/C(=O)O (stereo unspecified),LD50,[1],575 mg/kg
same,ED50,Mus musculus [3],56 mg/kg
same,ED50,Rattus norvegicus [5],100 mg/kg
Cc1ccc(-c2oc(=O)oc2CCN2CCN(c3ccccc3)CC2)cc1.Cl,LD50,[1],> 1000 mg/kg
same,ED50,Rattus norvegicus [5],80 mg/kg
Cl.O=c1oc(CCN2CCN(c3ccc(Cl)cc3)CC2)c(-c2ccc(Cl)cc2)o1,LD50,[1],> 1000 mg/kg
same,ED50,Rattus norvegicus [2],8 mg/kg
Cl.O=c1oc(CCN2CCN(c3ccccc3)CC2)c(-c2ccc(Cl)cc2)o1,Reduction,Rattus norvegicus [8],100%
same,Reduction,Rattus norvegicus [9],16%
same,Reduction,Rattus norvegicus [10],14%
same,Reduction,Rattus norvegicus [11],22%
same,Reduction,Rattus norvegicus [12],58%
same,Increase,Rattus norvegicus [13],13%
same,LD50,[1],865 mg/kg
same,Reduction,Rattus norvegicus [14],83%
same,Reduction,Rattus norvegicus [15],15%
same,Increase,Rattus norvegicus [16],28%
same,Reduction,Rattus norvegicus [17],48%
same,Reduction,Rattus norvegicus [18],72%
same,Reduction,Rattus norvegicus [19],63%
same,ED50,Mus musculus [20],31 mg/kg
same,Increase,Rattus norvegicus [21],3%
same,ED50,Rattus norvegicus [5],11.3 mg/kg
CCOC(=O)C(C)(C)Oc1ccc(Cl)cc1 [CLOFIBRATE],Increase,Rattus norvegicus [22],51%
same,Reduction,Rattus norvegicus [11],20%
same,Increase,Rattus norvegicus [13],3%
same,Reduction,Rattus norvegicus [14],23%
same,Reduction,Rattus norvegicus [16],21%
same,Reduction,Rattus norvegicus [23],-39%
same,Reduction,Rattus norvegicus [24],46%
same,Reduction,Rattus norvegicus [18],31%
same,Reduction,Rattus norvegicus [19],7%
same,Reduction,Rattus norvegicus [25],43%
same,Reduction,Rattus norvegicus [26],-11%
Cl.O=c1oc(CCN2CCN(c3ccc(Cl)c(Cl)c3)CC2)c(-c2ccc(F)cc2)o1,ED50,Mus musculus [3],120 mg/kg
same,ED50,Rattus norvegicus [6],20 mg/kg
CN(C)C(=O)OC(CCN1CCN(c2ccccc2)CC1)C(=O)c1ccc(F)cc1.Cl (stereo unspecified),LD50,[1],150 mg/kg
same,ED50,Mus musculus [3],30 mg/kg
same,ED50,Rattus norvegicus [27],35 mg/kg
Cl.O=C(c1ccc(F)cc1)C(O)CCN1CCN(c2ccccc2)CC1 (stereo unspecified),LD50,[1],> 1000 mg/kg
same,ED50,Mus musculus [3],35 mg/kg
same,ED50,Rattus norvegicus [5],50 mg/kg
COc1ccc(-c2oc(=O)oc2CCN2CCN(c3ccccc3)CC2)cc1.Cl,LD50,[1],> 1000 mg/kg
same,ED50,Rattus norvegicus [2],25 mg/kg
same,ED50,Mus musculus [3],75 mg/kg
Cl.O=c1oc(CCCN2CCN(c3ccccc3)CC2)c(-c2ccc(F)cc2)o1,ED50,Rattus norvegicus [28],50 mg/kg
Cl.O=c1oc(CCN2CCN(c3ccccc3)CC2)c(-c2ccc(F)cc2)o1,Increase,Rattus norvegicus [22],43%
same,Reduction,Rattus norvegicus [8],85%
same,Reduction,Rattus norvegicus [29],39%
same,Reduction,Rattus norvegicus [30],82%
same,LD50,[1],936 mg/kg
same,Reduction,Rattus norvegicus [14],75%
same,Reduction,Rattus norvegicus [31],52%
same,Reduction,Rattus norvegicus [32],57%
same,Increase,Rattus norvegicus [33],12%
same,Reduction,Rattus norvegicus [34],97%
same,Reduction,Rattus norvegicus [35],76%
same,Increase,Rattus norvegicus [36],9%
same,Increase,Rattus norvegicus [16],33%
same,Reduction,Rattus norvegicus [19],27%
same,ED50,Mus musculus [3],100 mg/kg
same,Reduction,Rattus norvegicus [37],12%
same,Increase,Rattus norvegicus [38],12%
same,Reduction,Rattus norvegicus [39],36%
same,Reduction,Rattus norvegicus [40],20%
same,ED50,Rattus norvegicus [5],18.6 mg/kg
same,Reduction,Rattus norvegicus [41],19%
Cl.O=c1oc(CCN2CCN(c3cccc(Cl)c3)CC2)c(-c2ccc(F)cc2)o1,LD50,[1],500 mg/kg
same,ED50,Mus musculus [3],46 mg/kg
COc1cc(C(=O)OC(CCN2CCN(c3ccccc3)CC2)C(=O)c2ccc(F)cc2)cc(OC)c1OC.Cl (stereo unspecified),ED50,Mus musculus [42],13 mg/kg
same,LD50,[1],> 1000 mg/kg
same,ED50,Rattus norvegicus [43],21 mg/kg
Cl.O=c1oc(CCN2CCN(c3ccccc3)CC2)c(-c2ccc(-c3ccccc3)cc2)o1,ED50,Mus musculus [44],29 mg/kg
same,LD50,[1],> 1000 mg/kg
